Counter-ions that a name gives are not always drawn.
Assays:
[1] = tested on: IFN production by activated immune cells (PBMC); experiment: IFN production by R848-activated PBMC from healthy donors, STING-37 reporter cell line; assay type: cell-based, human; conditions: different concentrations, R848, STING-37 reporter, FIG. 1
Procedure: 1) The blood from healthy donors was obtained from two sources. Either from “Etablissement Français du Sang” (convention #07/CABANEL/106), Paris, France or from the Apheresis and Blood Donation Unit at the Institute of Transfusion Medicine and Immunogenetics (IKT), Ulm, Germany after being approved by the Institutional Review Board at Ulm University.
In vitro experiments were performed using human peripheral blood mononuclear cells (PBMCs) isolated by density centrifugation from peripheral blood leukocyte separation medium (Cambrex, Gaithersburg, Md.).
PBMCs were cultured in RPMI 1640 (Invitrogen, Gaithersburg, Md.) (R10) containing 10% heat-inactivated fetal bovine serum, 100 U/mL Penicilium and 100 μg/mL Streptomycin (1% Pen-Strep) and 1 mM glutamine (Hyclone, Logan, Utah).
1) The PBMCs used herein were prepared as described in part A “immune cells preparation”, section 1) above. PBMCs were seeded at 2.10^6/mL. […]
1) To quantify the secretion of functional IFN, a biological assay based on a stable cell line where luciferase reporter gene is controlled by five Interferon-Stimulated Response Elements (STING37 cell line) was used. […] After 24 h of culture, luciferase activity was determined by adding 50 μL of Bright-Glo reagents (Promega) to culture wells and measuring bioluminescence with a luminometer.

[2] = tested on: TNFα production by monocytes (CD14+ cells); experiment: Requirement of CXCR4 (siRNA knockdown or AMD3100) for the effect on TNFα production by monocytes from healthy donors; assay type: cell-based, human; conditions: AMD3100 20 μM 1 h, example 1 5 μM or example 2 1 μM, R848, FIG. 5B
Procedure: Monocytes were purified from PBMCs by positive selection with the CD14 microbeads (Miltenyi Biotec) and MACS column.
1) The PBMCs used herein were prepared as described in part A “immune cells preparation”, section 1) above. PBMCs were seeded at 2.10^6/mL. […] Cells were then stimulated with the TLR7/8 agonist resiquimod—R848 (Invivogen) at 5 μg/mL. When stated, AMD (20 μM) (Sigma-Aldrich, MO, USA) was added to the cells 1 h before incubation with example 1.
Isolated monocytes were seeded at 10^5 cells/100 μL in 96-well plates and incubated at 37° C. Cyclophilin B (control) and CXCR4 small interfering RNA (siRNA) (Smart Pool, Dharmarcon) was diluted in DOTAP (Roche Applied Sciences). The mix was gently mixed and incubated at room temperature for 15 minutes. After incubation, the mix was added to cells in culture at a final concentration of 160 nM. Finally, cells were incubated at 37° C. for 24 hours before stimulation.
R848-stimulated PBMCs were washed in PBS and then incubated with a viability stain (Zombie-Aqua, Biolegend) for 30 min at 4° C. After washing, the cells were resuspended in PBS containing 2% FCS and 2 mM EDTA and stained with the extracellular mix using APC-anti-BDCA4 (clone 12C2), FITC-anti-CD123 (clone 6H6), PerCP.cy5.5-anti-CD56 (clone 5.1H11), BV421-anti-HLADR (clone L243), PE.cy7-anti-CD19 (clone 4G7), APC-cy.7-anti-CD14 (clone M5E2) all from Biolegend and used at 1/200 and V500-anti-CD3 (BD Bioscience, clone SP34-2, 1/200). For the TNFα intracellular staining a Fixation/Permeabilization Solution Kit (BD Cytofix/Cytoperm) was used according to the manufacturer's protocol. Briefly, the cells were fixed for 10 min at 4° C. with 100 μL of the Fixation/Permeabilization solution then washed and stained in 100 μL of the BD Perm/Wash Buffer containing TNFα-APC (Miltenyi, 1/500) antibody for 1 h at 4° C. Data acquisition was performed on a Canto II flow cytometer using Diva software (BD Biosciences, San Jose, Calif.). FlowJo software (Treestar, Ashland, Oreg.) was used to analyze data.

IL-1β = experiment: Cytokine production by R848-activated PBMCs, LEGENDplex Human Inflammation panel 1: IL-1β; assay type: cell-based; conditions: Homo sapiens, PBMC, PBMCs from 2 healthy donors, R848 overnight, read-out: IC50 (μM) 1L-1β
Procedure: (§1) 2) The PBMCs used herein were prepared as described in part A “immune cells preparation”, section 2) above. PBMCs were seeded at 4.10^6/mL. […] Cells were then stimulated with the TLR7/8 agonist resiquimod—R848 (Sigma-Aldrich, MO, USA) at 5 μg/mL.
(§2) Cytokine expression levels were assessed using LEGENDplex Human inflammation panel 1 Kit (BioLegend, California, USA), which is a bead-based multiplex assay, using fluorescence-encoded beads. […] First, supernatants of R848-stimulated PBMCs were harvested after 24 h of stimulation and frozen at −20° C. for storage. Supernatants were dispensed into a 96-well V-bottom plate. Protocol pursued as per manufacturer recommendations (Manual for BioLegend LEGENDplex, Multi-Analyte Flow Assay Kit, Human Inflammation Panel 1, version 750000393_R01).

IFN-γ = experiment: Cytokine production by R848-activated PBMCs, LEGENDplex Human Inflammation panel 1: IFN-γ; assay type: cell-based; conditions: Homo sapiens, PBMC, PBMCs from 2 healthy donors, R848 overnight
Procedure: as §1, §2

TNF-α = experiment: Cytokine production by R848-activated PBMCs, LEGENDplex Human Inflammation panel 1: TNF-α; assay type: cell-based; conditions: Homo sapiens, PBMC, PBMCs from 2 healthy donors, R848 overnight
Procedure: as §1, §2

IL-10 = experiment: Cytokine production by R848-activated PBMCs, LEGENDplex Human Inflammation panel 1: IL-10; assay type: cell-based; conditions: Homo sapiens, PBMC, PBMCs from 2 healthy donors, R848 overnight
Procedure: as §1, §2

IL-18 = experiment: Cytokine production by R848-activated PBMCs, LEGENDplex Human Inflammation panel 1: IL-18; assay type: cell-based; conditions: Homo sapiens, PBMC, PBMCs from 2 healthy donors, R848 overnight
Procedure: as §1, §2

IL-23 = experiment: Cytokine production by R848-activated PBMCs, LEGENDplex Human Inflammation panel 1: IL-23; assay type: cell-based; conditions: Homo sapiens, PBMC, PBMCs from 2 healthy donors, R848 overnight
Procedure: as §1, §2

Compound: CC1(C)CN2C(CSC3=NCC(C)(C)N3)=CSC2=N1 [Example 2, 3-(((5,5-dimethyl-4,5-dihydro-1H-imidazol-2-yl)thio)methyl)-6,6-dimethyl-5,6-dihydroimidazo[2,1-b]thiazole dihydrochloride]
- reduction of IFN production by activated PBMCs [1]: 100%
- TNFα production by activated monocytes in the presence of the example after pre-incubation with AMD3100 [2]: restored
- IC50 (IL-1β): 32 µM
- IC50 (IFN-γ): 26 µM
- IC50 (TNF-α): 46 µM
- IC50 (IL-10): 9.1 µM
- IC50 (IL-18): 13 µM
- IC50 (IL-23): 4.7 µM

Reference: patent US20220144853A1, “IMIDAZOLINE DERIVATIVES AS CXCR4 MODULATORS” (Université de Paris, priority 2019, published 2022)
